Measurements published in patent US4581172A, “Substituted pyrimido[6,1-a]isoquinolin-4-ones,pyrimido[6,1-a]benzozepin-4-ones and pyrimido[6,1-a]benzodiazepin-4-ones useful for prevention of thromboses and treating hypertension” (Hoffmann-La Roche Inc., priority 1983, dated 1986).

Tests used:
[1] = tested on: Human platelet-rich plasma; test: Inhibition of collagen-initiated platelet aggregation (aggregometer method); type: cell-based; conditions: 10 min, human citrate plasma, 10 minutes at 37° C., aggregation initiated by collagen fibrils, hydrochlorides of the products tested, read-out: EC50 (maximum aggregation velocity)
Experimental: The maximum aggregation velocity was taken as the test parameter and the effective concentration (EC50) was ascertained from dosage-activity curves. Human platelet-rich plasma was obtained by centrifugation from citrated venous blood. The experiments were carried out with suspensions of the test substances in 0.9% sodium chloride. 0.18 ml of citrate plasma was treated with a 10 μl suspension of the test compounds and the mixture was incubated at 37° C. for 10 minutes, whereupon the aggregation was initiated by the addition of 10 μl of a suspension of collagen fibrils. The following EC50 values (in μM) were ascertained for the hydrochlorides of the products of certain Examples hereinafter: […]

[2] = Acute toxicity (LD50) p.o. in mice; conditions: mouse, in vivo, po, hydrochloride

Row | Compound | EC50 [1] [µM] | LD50 [2] [mg/kg]
1 | COc1cc2c(cc1OC)-c1cc(=Nc3c(C)cc(C)cc3C)n(C)c(=O)n1CCC2 [5(a), 10,11-dimethoxy-2-mesitylimino-3-methyl-2,3,7,8-tetrahydro-4H,6H-pyrimido[6,1-a]benzazepin-4-one] | 0.12 | –
2 | COc1cc2c(cc1OC)C(C)Cn1c-2cc(=Nc2ccccc2C)n(C)c1=O (centres unmarked) [6a) 2.] | – | 2500
3 | COc1cc2c(cc1OC)-c1cc(Nc3c(C)cc(C)cc3C)nc(=O)n1C(C)C2 (centres unmarked) [Example 2(a), 6,7-dihydro-9,10-dimethoxy-2-mesitylamino-6-methyl-4H-pyrimido[6,1-a]isoquinolin-4-one] | 0.11 | –

The remaining molecules from weak to strong by EC50 [1], led by results:

Row | EC50 [1] [µM] | Compound | LD50 [2] [mg/kg]
4 | 0.6 | COc1cc2c(cc1OC)C(C)Cn1c-2cc(=Nc2c(C)cc(C)cc2C)n(C)c1=O (centres unmarked) [Example 3, 9,10-dimethoxy-3,7-dimethyl-2-mesitylimino-2,3,6,7-tetrahydro-4H-pyrimido[6,1-a]isoquinolin-4-one] | –
5 | 0.1 | COc1cc2c(cc1OC)-c1cc(=Nc3c(C)cc(C)cc3C)n(C)c(=O)n1C(C)C2 (centres unmarked) [4(a), 9,10-dimethoxy-3,6-dimethyl-2-mesitylimino-2,3,6,7-tetrahydro-4H-pyrimido[6,1-a]isoquinolin-4-one] | –
